Experimental data as given in ChEMBL document CHEMBL6120978, “Anticancer activity of salinomycin quaternary phosphonium salts” (Eur J Med Chem, 2025).
Converted amounts (≈) assume the structure as drawn. The source made the active and inactive calls. No cut-off for these calls is given here.

Columns and labels:
[1] = system: SW480; test: Cytotoxicity against human SW480 cells incubated for 72 hrs by MTT assay; type: functional, cell-based; conditions: SW480, 72 h
[2] = system: SW-620; test: Cytotoxicity against human SW620 cells incubated for 72 hrs by MTT assay; type: functional, cell-based; conditions: SW-620, 72 h
[3] = system: PC-3; test: Cytotoxicity against human PC-3 cells incubated for 72 hrs by MTT assay; type: functional, cell-based; conditions: PC-3, 72 h
[4] = system: MDA-MB-231; test: Cytotoxicity against human MDA-MB-231 cells incubated for 72 hrs by MTT assay; type: functional, cell-based; conditions: MDA-MB-231, 72 h
[5] = system: A549; test: Cytotoxicity against human A549 cells incubated for 72 hrs by MTT assay; type: functional, cell-based; conditions: A549, 72 h
[6] = Cytotoxicity against human HaCaT cells incubated for 72 hrs by MTT assay; type: toxicity, cell-based
[7] = Cytotoxicity against chinese hamster V79 cells incubated for 72 hrs by MTT assay; type: toxicity, cell-based, Cricetulus griseus
[8] = Selectivity index, ratio of IC50 for cytotoxicity against human HaCaT cells to IC50 for cytotoxicity against human SW480 cells; type: toxicity, cell-based; conditions: HaCaT cells versus SW480 cells, read-out: Ratio IC50
[9] = Selectivity index, ratio of IC50 for cytotoxicity against human HaCaT cells to IC50 for cytotoxicity against human SW620 cells; type: toxicity, cell-based; conditions: HaCaT cells versus SW620 cells, read-out: Ratio IC50
[10] = Selectivity index, ratio of IC50 for cytotoxicity against human HaCaT cells to IC50 for cytotoxicity against human PC-3 cells; type: toxicity, cell-based; conditions: HaCaT cells versus PC-3 cells, read-out: Ratio IC50
[11] = Selectivity index, ratio of IC50 for cytotoxicity against human HaCaT cells to IC50 for cytotoxicity against human MDA-MB-231 cells; type: toxicity, cell-based; conditions: HaCaT cells versus MDA-MB-231 cells, read-out: Ratio IC50
[12] = Selectivity index, ratio of IC50 for cytotoxicity against human HaCaT cells to IC50 for cytotoxicity against human A549 cells; type: toxicity, cell-based; conditions: HaCaT cells versus A549 cells, read-out: Ratio IC50
[13] = Selectivity index, ratio of IC50 for cytotoxicity against chinese hamster V79 cells to IC50 for cytotoxicity against human SW480 cells; type: toxicity, cell-based; conditions: V79 cells versus SW480 cells, read-out: Ratio IC50
[14] = Selectivity index, ratio of IC50 for cytotoxicity against chinese hamster V79 cells to IC50 for cytotoxicity against human SW620 cells; type: toxicity, cell-based; conditions: V79 cells versus SW620 cells, read-out: Ratio IC50
[15] = Selectivity index, ratio of IC50 for cytotoxicity against chinese hamster V79 cells to IC50 for cytotoxicity against human PC-3 cells; type: toxicity, cell-based; conditions: V79 cells versus PC-3 cells, read-out: Ratio IC50
[16] = Selectivity index, ratio of IC50 for cytotoxicity against chinese hamster V79 cells to IC50 for cytotoxicity against human MDA-MB-231 cells; type: toxicity, cell-based; conditions: V79 cells versus MDA-MB-231 cells, read-out: Ratio IC50
[17] = Selectivity index, ratio of IC50 for cytotoxicity against chinese hamster V79 cells to IC50 for cytotoxicity against human A549 cells; type: toxicity, cell-based; conditions: V79 cells versus A549 cells, read-out: Ratio IC50
[18] = system: A549; test: Effect on mitochondrial mass in human A549 cells assessed as increase in mean fluorescence intensity at IC50 incubated for 48 hrs by MitoTracker Green FM staining based flow cytometry analysis; type: functional, cell-based
[19] = system: MDA-MB-231; test: Effect on mitochondrial mass in human MDA-MB-231 cells assessed as increase in mean fluorescence intensity at IC50 incubated for 48 hrs by MitoTracker Green FM staining based flow cytometry analysis; type: functional, cell-based
[20] = system: A549; test: Effect on mitochondrial function in human A549 cells assessed as change in mean fluorescence intensity at IC50 incubated for 48 hrs by MitoTracker Red CMXRos staining based flow cytometry analysis; type: functional, cell-based
[21] = system: Mitochondrial membrane; test: Induction of mitochondrial membrane potential loss in human A549 cells assessed as green fluorescence at IC50 incubated for 48 hrs MitoTracker Green FM staining based flow cytometry analysis (reference value: 8.93 %); type: cell membranes
[22] = system: A549; test: Induction of cell cycle arrest in human A549 cells assessed as change in cell population at IC50 incubated for 24 hrs by propidium iodide staining based flow cytometry analysis; type: functional
[23] = system: A549; test: Induction of apoptosis in human A549 cells assessed as viable cells at IC50 incubated for 72 hrs by Annexin V-FITC staining based flow cytometry analysis (reference value: 95.49 %); type: functional
[24] = system: A549; test: Induction of apoptosis in human A549 cells assessed as early apoptotic cells at IC50 incubated for 72 hrs by Annexin V-FITC staining based flow cytometry analysis (reference value: 1.68 %); type: functional
[25] = system: A549; test: Induction of apoptosis in human A549 cells assessed as late apoptotic cells at IC50 incubated for 72 hrs by Annexin V-FITC staining based flow cytometry analysis (reference value: 1.86 %); type: functional
[26] = system: A549; test: Induction of apoptosis in human A549 cells assessed as necrotic cells at IC50 incubated for 72 hrs by Annexin V-FITC staining based flow cytometry analysis (reference value: 0.97 %); type: functional
[27] = system: MDA-MB-231; test: Induction of apoptosis in human MDA-MB-231 cells assessed as viable cells at IC50 incubated for 72 hrs by Annexin V-FITC staining based flow cytometry analysis (reference value: 91.53 %); type: functional
[28] = system: MDA-MB-231; test: Induction of apoptosis in human MDA-MB-231 cells assessed as early apoptotic cells at IC50 incubated for 72 hrs by Annexin V-FITC staining based flow cytometry analysis (reference value: 4.23 %); type: functional
[29] = system: MDA-MB-231; test: Induction of apoptosis in human MDA-MB-231 cells assessed as late apoptotic cells at IC50 incubated for 72 hrs by Annexin V-FITC staining based flow cytometry analysis (reference value: 3.07 %); type: functional
[30] = system: MDA-MB-231; test: Induction of apoptosis in human MDA-MB-231 cells assessed as necrotic cells at IC50 incubated for 72 hrs by Annexin V-FITC staining based flow cytometry analysis (reference value: 1.17 %); type: functional
[31] = system: Mitochondrial membrane; test: Induction of mitochondrial membrane potential loss in human MDA-MB-231 cells assessed as green fluorescence at IC50 incubated for 48 hrs MitoTracker Green FM staining based flow cytometry analysis (reference value: 8.86 %); type: cell membranes
[32] = system: Mitochondrial membrane; test: Induction of mitochondrial membrane potential loss in human MDA-MB-231 cells assessed as red fluorescence at IC50 incubated for 48 hrs MitoTrackerRed CMXRos staining based flow cytometry analysis (reference value: 91.1 %); type: cell membranes
[33] = system: Mitochondrial membrane; test: Induction of mitochondrial membrane potential loss in human A549 cells assessed as red fluorescence at IC50 incubated for 48 hrs MitoTrackerRed CMXRos staining based flow cytometry analysis (reference value: 91.1 %); type: cell membranes
[34] = system: A549; test: Induction of ROS generation of human A549 cells at IC50 incubated for 6 hrs by CellROX Green staining based spectrofluorometer analysis; type: functional, cell-based
[35] = system: MDA-MB-231; test: Induction of ROS generation of human MDA-MB-231 cells at IC50 incubated for 6 hrs by CellROX Green staining based spectrofluorometer analysis; type: functional, cell-based
[36] = system: Staphylococcus aureus; test: Antimicrobial activity against Staphylococcus aureus NCTC 4163 incubated for 18 hrs by twofold microdilution method; type: functional
[37] = system: Staphylococcus aureus; test: Antimicrobial activity against Staphylococcus aureus ATCC 25923 incubated for 18 hrs by twofold microdilution method; type: functional
[38] = system: Staphylococcus aureus; test: Antimicrobial activity against Staphylococcus aureus ATCC 6538 incubated for 18 hrs by twofold microdilution method; type: functional
[39] = system: Staphylococcus aureus; test: Antimicrobial activity against Staphylococcus aureus ATCC 29213 incubated for 18 hrs by twofold microdilution method; type: functional
[40] = system: Staphylococcus epidermidis; test: Antimicrobial activity against Staphylococcus epidermidis ATCC 12228 incubated for 18 hrs by twofold microdilution method; type: functional
[41] = system: Staphylococcus epidermidis; test: Antimicrobial activity against Staphylococcus epidermidis ATCC 35984 incubated for 18 hrs by twofold microdilution method; type: functional
[42] = system: Escherichia coli; test: Antimicrobial activity against Escherichia coli ATCC 25922 incubated for 18 hrs by twofold microdilution method; type: functional
[43] = system: Pseudomonas aeruginosa; test: Antimicrobial activity against Pseudomonas aeruginosa ATCC 15442 incubated for 18 hrs by twofold microdilution method; type: functional

With `CC[C@@H](C(=O)[C@@H](C)[C@@H](O)[C@H](C)[C@@H]1O[C@@H]([C@@H](CC)C(=O)OCc2ccccc2)CC[C@@H]1C)[C@H]1O[C@]2(C=C[C@@H](O)[C@]3(CC[C@@](C)([C@H]4CC[C@](O)(CC)[C@H](C)O4)O3)O2)[C@H](C)C[C@@H]1C` as the compound, how does the IC50 [1] read?
Its IC50 is 3.48 µM.

And the IC50 [2]?
Its IC50 is 7.77 µM.

And the IC50 [3]?
Its IC50 is 8.79 µM.

And the IC50 [4]?
Its IC50 is 16.5 µM.

What about the IC50 [5] of the same compound?
Its IC50 is 7.52 µM.

What about the IC50 at 72 h [6] of the same compound?
Its IC50 at 72 h is 8 µM.

And the IC50 at 72 h [7]?
Its IC50 at 72 h is 5.83 µM.

And the selectivity ratio [8]?
The selectivity ratio was 2.3.

And the selectivity ratio [9]?
The selectivity ratio was 1.

What about the selectivity ratio [10] of the same compound?
The selectivity ratio was 0.9.

What about the selectivity ratio [11] of the same compound?
Its selectivity ratio is 0.5.

And the selectivity ratio [12]?
Its selectivity ratio is 1.1.

And the selectivity ratio [13]?
Its selectivity ratio is 1.7.

And the selectivity ratio [14]?
Its selectivity ratio is 0.8.

And the selectivity ratio [15]?
Its selectivity ratio is 0.7.

What about the selectivity ratio [16] of the same compound?
Its selectivity ratio is 0.3.

And the selectivity ratio [17]?
Its selectivity ratio is 0.8.

And the Activity [18]?
The Activity was “Active; Slight Increase In Mfi Is Observed”.

And the Activity [19]?
Its Activity is “Active; Slight Increase In Mfi Is Observed”.

And the Activity [20]?
Its Activity is “inactive”.

What about the Activity [21] of the same compound?
The Activity was 25.5%.

And the Activity [22]?
Its Activity is “inactive”.

What about the Activity [23] of the same compound?
The Activity was 84.65%.

What about the Activity [24] of the same compound?
The Activity was 10.57%.

What about the Activity [25] of the same compound?
The Activity was 2.76%.

What about the Activity [26] of the same compound?
Its Activity is 2.02%.

And the Activity [27]?
The Activity was 83.92%.

And the Activity [28]?
Its Activity is 6.5%.

And the Activity [29]?
The Activity was 7.41%.

What about the Activity [30] of the same compound?
Its Activity is 2.17%.

And the Activity [31]?
The Activity was 19.6%.

And the Activity [32]?
The Activity was 79.7%.

And the Activity [33]?
Its Activity is 74.5%.

And the Activity [34]?
The Activity was “Active; Slight Insignificant Increase In Ros Level Was Observed”.

What about the Activity [35] of the same compound?
Its Activity is “Active; Slight Insignificant Increase In Ros Level Was Observed”.

What about the MIC [36] of the same compound?
The MIC was 64 µg/mL (≈ 76.1 µM).

What about the MIC [37] of the same compound?
The MIC was 64 µg/mL (≈ 76.1 µM).

What about the MIC [38] of the same compound?
The MIC was 32 µg/mL (≈ 38 µM).

What about the MIC [39] of the same compound?
The MIC was 64 µg/mL (≈ 76.1 µM).

And the MIC [40]?
The MIC was 64 µg/mL (≈ 76.1 µM).

What about the MIC [41] of the same compound?
The MIC was > 256 µg/mL.

What about the MIC [42] of the same compound?
The MIC was > 256 µg/mL.

And the MIC [43]?
Its MIC is > 256 µg/mL.

For `N#CC(C#N)=NNc1cccc(Cl)c1`, which Activity [21] is on record?
The Activity was 79.6%.

And the Activity [31]?
The Activity was 87.8%.

And the Activity [32]?
The Activity was 12.3%.

And the Activity [33]?
The Activity was 20.2%.
